# Source: patent US12427183B2, “Methods of treating cancer, infectious disease, and autoimmune disease using chemokines” (New York Society for the Relief of the Ruptured and …, priority 2016, dated 2025)
# B1: IFN-γ: cytokine added to pDC culture at 10 ng/ml (protein, UniProt P01579 24-161, looked up)
# Interferon gamma: QDPYVKEAENLKKYFNAGHSDVADNGTLFLGILKNWKEESDRKIMQSQIVSFYFKLFKNFKDDQSIQKSVETIKEDMNVKFFNSNKKKRDDFEKLTNYSVTDLNVQRKAIHELIQVMAELSPAAKTGKRKRSQMLFRG
# B2: IL-12: cytokine added to pDC culture at 100 ng/ml (protein, UniProt P29459 23-219; P29460 23-328, looked up)
# Interleukin-12 subunit alpha: RNLPVATPDPGMFPCLHHSQNLLRAVSNMLQKARQTLEFYPCTSEEIDHEDITKDKTSTVEACLPLELTKNESCLNSRETSFITNGSCLASRKTSFMMALCLSSIYEDLKMYQVEFKTMNAKLLMDPKRQIFLDQNMLAVIDELMQALNFNSETVPQKSSLEEPDFYKTKIKLCILLHAFRIRAVTIDRVMSYLNAS
# Interleukin-12 subunit beta: IWELKKDVYVVELDWYPDAPGEMVVLTCDTPEEDGITWTLDQSSEVLGSGKTLTIQVKEFGDAGQYTCHKGGEVLSHSLLLLHKKEDGIWSTDILKDQKEPKNKTFLRCEAKNYSGRFTCWWLTTISTDLTFSVKSSRGSSDPQGVTCGAATLSAERVRGDNKEYEYSVECQEDSACPAAEESLPIEVMVDAVHKLKYENYTSSFFIRDIIKPDPPKNLQLKPLKNSRQVEVSWEYPDTWSTPHSYFSLTFCVQVQGKSKREKKDRVFTDKTSATVICRKNASISVRAQDRYYSSSWSEWASVPCS
# B3: CXCL9: belongs to the CXC chemokine family, also known as MIG (protein, UniProt Q07325 23-125, looked up)
# C-X-C motif chemokine 9: TPVVRKGRCSCISTNQGTIHLQSLKDLKQFAPSPSCEKIEIIATLKNGVQTCLNPDSADVKELIKKWEKQVSQKKKQKNGKKHQKKKVLKVRKSQRSRQKKTT
# B4: IL-10: cytokine added to pDC culture at 10 ng/ml (protein, UniProt P22301 19-178, looked up)
# Interleukin-10: SPGQGTQSENSCTHFPGNLPNMLRDLRDAFSRVKTFFQMKDQLDNLLLKESLLEDFKGYLGCQALSEMIQFYLEEVMPQAENQDPDIKAHVNSLGENLKTLRLRLRRCHRFLPCENKSKAVEQVKNAFNKLQEKGIYKAMSEFDIFINYIEAYMTMKIRN
# Tests used:
# pDCs of HDs = assay: TLR gene expression in purified pDCs from HDs cultured with cytokines or chemokines (qPCR); type: cell-based, human; settings: 24 hours; for induction of TLR8 expression on pDCs of HDs: purified pDCs from HDs, IFN-α and IFN-γ 10 ng/ml, IL-12 100 ng/ml, IL-6 5 ng/ml, IL-10 10 ng/ml, TNF 1 ng/ml, TGF-β 10 ng/ml
# Experimental: (§1) PBMCs were prepared using Ficoll-Paque density gradient from fresh blood under internal Institutional Review Board-approved protocols. pDCs were isolated as previously described (Guiducci et al. 2008) using either using negative depletion (Miltenyi Biotech) or following cell sorting using a BD IFNLUX cell sorter. As part of the gating strategy, neutrophils were excluded by FSC/SSC and cells positive for CD14 (CD3 and CD19 as well) were first excluded in order to prevent the contamination by TLR8 positive cells and then positively gated on HLA-DR, CD123 and BDCA4 to purify the pDCs. All BDCA4+ cells also express BDCA2 (results not shown). As a result, pure pDCs were obtained and no markers for neutrophils (CD66) or myeloid cells were found by PCR. B cells were FACS sorted as CD19+ and monocytes as CD14+ cells. PBMCs were depleted of pDCs using BDCA4 beads from Miltenyi. pDCs were cultured at 10,000-30,000 cells per well in a 96-round bottom plate and incubated at 37° C., 5% CO2 and 95% humidity. After 24 hours of culture, the supernatant was collected for ELISA or Mutiplex cytokine assays. In some culture conditions, cells were cultured with the PI3Kδ inhibitor, CAL-101 (Selleck chemicals) for 24 hours. The RNA-based TLR8 agonist, ORN8-L previously described (Guidacci et al. 2013) was synthetized by Chemgenes Corporation. For the TLR8 activation assay, pDCs were incubated in complete media alone, 200 μg/ml ORN8-L in complete media or 200 μg/ml ORN8-L+ 10 μg/ml CXCL4 (R&D systems).
# PCR reactions were performed as described previously with 10 ng of cDNA (Barrat et al. 2005). In brief, RNA was extracted from cells using the Qiagen RNeasy Mini Kit. Quantity of RNA was measured by Nanodrop and high-capacity cDNA Reverse Transcription kit was used to generate 20-50 ng cDNA. Gene expression levels were calculated based on relative threshold cycle (Ct) values. This was done using the formula Relative Ct=100×1.8 (HSK-GENE), where HSK is the mean CT of duplicate housekeeping gene runs (we used Ubiquitin), GENE is the mean CT of duplicate runs of the gene of interest, and 100 is arbitrarily chosen as a factor to bring all values above 0.
# In particular, CXCL4 or IP-10 (two CXCR3B agonists) (10 μg/ml each) had no impact on TLR8 nor TLR7 and TLR9 expression levels in pDCs (FIG. 2C).
# [1] = tested on: TLR9-mediated activation of pDCs; assay: TLR9-mediated activation of purified pDCs (CpG with or without chemokines), IFN-α ELISA; type: cell-based, human; settings: for IFNα production from TLR9 in pDCs from HDs / TLR9-induced response (IFN-α secretion) by pDCs: CpG 0.25 μM; for IFNα production from TLR9 in pDCs from HDs: chemokine 10 μg/ml (Example 9); for TLR9-induced response (IFN-α secretion) by pDCs: chemokine 10 μg/ml (Example 17); for dependence of IFN-α superinduction on chemokine receptors: with AMG487 100 nM, AMD3100 10 μg/ml, anti-CXCR7 11G8 10 μg/ml, J113863 1.5 μM or Vicriviroc 0.1 μM
# [2] = tested on: TLR9-mediated activation of human B cells; assay: TLR9-mediated activation of human B cells (CpG with or without chemokines); type: cell-based; settings: chemokine 10 μg/ml; for activation of B cells via TLR9 as shown by the production of IL-6: CpG 0.15 μM, ELISA
# Experimental: as §1
# IL-6, TNF, and IL-10 gene levels were measured at 6 hours post culture using PCR. The secretion of cytokines/chemokines in the supernatants was quantified using Luminex. CD83, CD80, CD86 and CD69 expression was measured by flow cytometry at 24 hour post culture.
# Human B cells were purified and cultured for 6 hours or 24 hours either with medium only, with CpG-C (at 0.15 μM) alone or with a combination of CpG-C and CXCL4 (at 10 μg/ml). IL-6 gene levels was measured at 6 hour post culture by PCR and CD83, CD80, CD86 and CD69 expression was measured by flow cytometry at 24 hour post culture.
# Purified B cells from HDs were cultured in media alone (control), with either a CpG TLR9 agonist (0.15 μM) or with CpG and either CXCL4, CXCL10, CXCL9, CXCL4, CXCL7 or CXCL12 (all at 10 μg/ml). IL-6 was quantified in the supernatants by ELISA.
# Purified B cells from HDs were cultured in media alone (control), with either a CpG TLR9 agonist (0.25 μM) or with CpG and CXCL4 or CXCL10 (10 μg/ml) alone or in the presence of the CXCR3 inhibitor AMG487 at 0, 0.1, 1 or 10 μM for 6 hours or 24 hours. IL-6 was quantified by ELISA at 24 hours and IL-6 and TNF gene expression levels were quantified by q-PCR at 6 hours and CD83, CD80, CD86 and CD69 expression was measured by flow cytometry at 24 hours post culture.
# [3] = tested on: purified pDCs from HDs or SSc patients; assay: IFN production by purified pDCs cultured with chemokine alone; type: cell-based, human; settings: chemokine 10 μg/ml without CpG, results not shown
# Experimental: as §1
# Supernatant from pDCs 24 hour culture was used for quantification of secreted chemokines and cytokines and measured with the use of an enzyme-linked immunosorbent assay (ELISA) or Luminex multiplex-beads immunoassay. CXCL4 ELISA (Ray Biotech) and IFNα, IP-10, IL-6, TNF Luminex assay (Millipore) was performed according to the manufacturer's protocol. Due to the variability in the number of cells obtained from the different patients and so we could compare the values across donors, all results were normalized to 10,000 cells. Of note, for all donors, pDCs were plated between 10,000-30,000 cells.
# When purified pDCs from HDs or SSc patients were cultured with CXCL4 alone ([…]), there was no effect on IFN production.
# (§2) 5×10^5 PBMCs or pDC-depleted PBMCs were cultured in 96 wells plate and stimulated with 0.25 μM CpG DNA with or without 10 μg/ml CXCL4, CXCL10, CXCL12 or CCL5. Freshly isolated pDCs were resuspended at 5×10^4 cells/100 μl RPMI 1640 medium (Gibco) and stimulated with the 0.25 μM CpG with/without 10 μg/ml indicated chemokines. The supernatant was harvested after 18 h and IFN-α was measured by ELISA.
# [4] = tested on: PBMCs and pDC-depleted PBMCs; assay: IFN-α production in PBMCs and pDC-depleted PBMCs cultured with CpG and chemokines (ELISA); type: cell-based, human; settings: CpG 0.25 μM + chemokine 10 μg/ml
# Experimental: PBMCs were prepared using Ficoll-Paque density gradient (GE Healthcare) as previously described (Guiducci et al., 2008).
# pDCs were isolated from PBMCs by positive selection using BDCA4-MicroBead Kit as previously described (Guiducci et al., 2008). pDC-depleted PBMC were prepared by removing BDCA4-positive cells from PBMC using microbeads.
# as §2
# As shown above, CXCL4 can increase IFN-α production by TLR9-activated pDCs. Thus it was tested whether other chemokines may impact TLR9 signaling in pDCs. Purified pDCs were left unstimulated (Unstim.) or cultured with CpG (0.25 μM) alone or with the indicated chemokines at 10 μg/ml. IFN-α secretion was quantified by ELISA. Strikingly, it was observed that a set of chemokines, including CXCL4, CXL10, CXCL12 and CCL5, were able to superinduce TLR9-induced response by pDCs (FIG. 18A), while they had no effect when used alone (results not shown). […] This also raised questions as to the specificity and mechanism for this effect. First, as other DNA sensors have been described to induce IFN-α in immune cells (Barrat et al., 2016), it was tested to see if these chemokines altered the specificity of the CpGs for TLR9 and if the IFN-α response was restricted to pDCs. Total PBMCs or PBMCs where pDCs were depleted (PBMC-ΔpDCs) were incubated with CpGs and either CXCL4, CXCL10, CXCL12 or CCL5 and IFN-α production was quantified by ELISA.
molecule,measurement,setting,value
IL-6: cytokine added to pDC culture at 5 ng/ml,induction of TLR8 expression on pDCs of HDs,pDCs of HDs,none of these molecules could induce TLR8
heparin [reference compound],"superinduction of IFN-α by all four chemokines (CXCL4, CXCL10, CXCL12, CCL5)","[1]; heparin 1 U/ml, CpG-activated pDCs",reduced
CXCL10: small chemokine belonging to the CXC chemokine family and a ligand for the receptor CXCR3,effect of inhibition of CXCR3 on the chemokine's inhibition of TLR9 in B cells,"[2]; CXCR3 inhibitor AMG487 0.1, 1 or 10 μM, CpG 0.25 μM, 6 or 24 hours",no effect
same,activation of B cells via TLR9 as shown by the production of IL-6,[2],inhibited
same,IFNα production from TLR9 in pDCs from HDs,[1],potentiated
same,TLR9-induced response (IFN-α secretion) by pDCs,[1],superinduce
same,dependence of IFN-α superinduction on chemokine receptors,[1],independent of their chemokine receptors
same,"IFN-α secretion by pDCs, chemokine used alone",[3],no effect
same,IFN-α production in absence of the pDCs (PBMC-ΔpDCs versus total PBMCs),[4],dramatic decrease
same,"TLR8, TLR7 and TLR9 expression levels in pDCs","pDCs of HDs; 10 μg/ml each, pDCs from HDs",no impact
"CXCL12: stromal cell-derived factor-1, small chemokine belonging to the CXC chemokine family",activation of B cells via TLR9 as shown by the production of IL-6,[2],inhibited
same,IFNα production from TLR9 in pDCs from HDs,[1],potentiated
same,TLR9-induced response (IFN-α secretion) by pDCs,[1],superinduce
same,dependence of IFN-α superinduction on chemokine receptors,[1],independent of their chemokine receptors
same,"IFN-α secretion by pDCs, chemokine used alone",[3],no effect
same,IFN-α production in absence of the pDCs (PBMC-ΔpDCs versus total PBMCs),[4],dramatic decrease
TGF-β,induction of TLR8 expression on pDCs of HDs,pDCs of HDs,none of these molecules could induce TLR8
CCL5: small chemokine belonging to the CC chemokine family,TLR9-induced response (IFN-α secretion) by pDCs,[1],superinduce
same,dependence of IFN-α superinduction on chemokine receptors,[1],independent of their chemokine receptors
same,"IFN-α secretion by pDCs, chemokine used alone",[3],no effect
same,IFN-α production in absence of the pDCs (PBMC-ΔpDCs versus total PBMCs),[4],dramatic decrease
IFN-α,induction of TLR8 expression on pDCs of HDs,pDCs of HDs,none of these molecules could induce TLR8
B1,induction of TLR8 expression on pDCs of HDs,pDCs of HDs,none of these molecules could induce TLR8
B2,induction of TLR8 expression on pDCs of HDs,pDCs of HDs,none of these molecules could induce TLR8
B3,activation of B cells via TLR9 as shown by the production of IL-6,[2],inhibited
B4,induction of TLR8 expression on pDCs of HDs,pDCs of HDs,none of these molecules could induce TLR8
